Test results reported in patent US10139415B2, “Method for predicting responsiveness to compound inhibiting MAPK signal transduction pathway” (DAIICHI SANKYO COMPANY, LIMITED, priority 2013, dated 2018).
Like-named read-outs stand apart in the source and are kept apart here.

Key:
[1] = test system: phosphorylation of MEK and ERK; assay: MEK and ERK phosphorylation inhibition by western blotting; type: cell-based; conditions: any of the cell lines (A375, HT29, DLD-1, HCT_116, SW48), 0.3-10 μM
Description: (§1) 48 hours after the drug treatment, the cells were collected and subjected to ethanol fixation and PI staining to measure a DNA content with a flow cytometer. In addition, in order to measure target molecule inhibitory activity in the drug-treated cells, the expression of ERK, phosphorylated ERK, MEK, phosphorylated MEK, and actin in the cells was evaluated by western blotting 24 hours after the drug treatment. In addition, the expression amount of a target molecule being phosphorylated was calculated compared to the expression amount of a target molecule to evaluate the influence of each inhibitor on a cell cycle at such a concentration that the expression of the phosphorylation of the target molecule was inhibited by 95% or more.

[2] = test system: A375 cells; assay: cell cycle measurement / apoptosis induction (PI staining, flow cytometer); type: cell-based
Description: (§2) A cell cycle measurement was performed by propidium iodide (PI) staining as described below. First, cells were subjected to drug treatment after 24 hours from seeding thereof in a 6-well plate. After collecting the culture medium and trypsinized cells, they were subjected to centrifugation at 1,000 g for 5 minutes, and the supernatant was removed. 1 mL of PBS^− was added to suspend the cells. The suspension was transferred to a 1.5-mL tube and then subjected to centrifugation treatment at 13,000 g for 1 minute, and the supernatant was removed. 200 μL of PBS^− was added to the residue to suspend the cells, and 1 mL of ice-cold 70% ethanol was added. Then, the cells were vortexed and immobilized at 4° C.
(§3) The immobilized cells were subjected to centrifugation at 1,000 g for 5 minutes, and the supernatant was removed. 1 mL of a PBS^− solution containing 10 μg/mL of RNase was added to the residue to suspend the cells, which was left to stand still at 37° C. for 20 minutes. After that, centrifugation was performed for 5 minutes, and then the supernatant was removed. […] of a PBS^− solution containing PI (50 μg/mL, manufactured by Wako) was added to the residue to suspend the cells. The total volume thereof was passed through a nylon mesh (φ=42 μm) and used as a sample. An intracellular DNA content was detected with PMT4 of a flow cytometer (manufactured by Beckman Coulter) to measure a cell cycle.
(§4) 48 hours after the drug treatment, the cells were collected and subjected to ethanol fixation and PI staining to measure a DNA content with a flow cytometer. […] In addition, the expression amount of a target molecule being phosphorylated was calculated compared to the expression amount of a target molecule to evaluate the influence on a cell cycle at such a concentration of inhibiting the expression of the phosphorylation of the target molecule by 95% or more.
as §1

[3] = test system: HT29 cells; assay: as above; type: cell-based; conditions: at the concentration that completely inhibited phosphorylation of ERK, 48 hours
Description: as §2, §3, §4, §1

[4] = test system: HCT_116 cells; assay: as above; type: cell-based; conditions: at the concentration that completely inhibited phosphorylation of ERK (MEK and ERK for SB590885), 48 hours
Description: as §2, §3, §4, §1

[5] = test system: DLD-1 cells; assay: as above; type: cell-based; conditions: at the concentration that completely inhibited phosphorylation of ERK, 48 hours
Description: as §2, §3, §4, §1

[6] = test system: SW48 cells; assay: as above; type: cell-based; conditions: at the concentration that completely inhibited phosphorylation of ERK, 48 hours
Description: as §2, §3, §4, §1

[7] = test system: malignant melanoma having an active BRAF mutation; conditions: patients with malignant melanoma having an active BRAF mutation, clinical trial; cited from earlier work
[8] = test system: 24 kinds of cell lines; conditions: GI50
Description: (§5) A cell growth-suppressive activity test was performed in both of two-dimensional culture and three-dimensional culture. First, a plate for three-dimensional culture was produced. Specifically, poly(2-hydroxyethyl methacrylate) (hereinafter abbreviated as poly-HEMA, manufactured by Sigma) was added to 95% ethanol so that the concentration was 5 mg/mL, and dissolved therein at 37° C. overnight. The solution was used as a poly-HEMA solution. The solution was loaded into a 96-well plate (manufactured by Nunc) at 50 μL/well. The plate was dried at 37° C. to produce a plate for three-dimensional culture coated with poly-HEMA.
The two-dimensional culture (hereinafter sometimes referred to as 2D culture) and the three-dimensional culture (hereinafter sometimes referred to as 3D culture) were performed by seeding the cells in a 96-well plate at 1×10^3 cells/150 μL/well and 2×10^3 cells/75 μL/well, respectively, and performing drug treatment on the following day. […] Cell growth was measured by measuring intracellular ATP amounts at the time of the drug treatment and 72 hours after the drug treatment. […] The total volume of each well was transferred to a white 96-well plate (manufactured by Nunc) and measured for its light emission intensity with a Wallac 1420 multilabel counter (manufactured by Perkin Elmer). […]

[9] = test system: HCT_116 cells; assay: cell growth-suppressive activity test; type: cell-based; conditions: 2D and 3D culture, 72 hours, CellTiter-Glo
Description: as §5
(§6) The two-dimensional culture (hereinafter sometimes referred to as 2D culture) and the three-dimensional culture (hereinafter sometimes referred to as 3D culture) were performed by seeding the cells in a 96-well plate at 1×10^3 cells/150 μL/well and 2×10^3 cells/75 μL/well, respectively, and performing drug treatment on the following day. The total volume was set to 200 μL in the two-dimensional culture, and the total volume was set to 100 μL in the three-dimensional culture. Cell growth was measured by measuring intracellular ATP amounts at the time of the drug treatment and 72 hours after the drug treatment. Specifically, after the removal of the culture medium at 100 μL/well, CellTiter-Glo (manufactured by Promega) was added at 50 μL/well in the two-dimensional culture, and CellTiter-Glo was added at 50 μL/well in the three-dimensional culture. After the addition, the plate was shaken with a shaker for 2 minutes and left to stand still at room temperature for 10 minutes. The total volume of each well was transferred to a white 96-well plate (manufactured by Nunc) and measured for its light emission intensity with a Wallac 1420 multilabel counter (manufactured by Perkin Elmer). From the resultant light emission amount, a growth ratio (Growth (%)) relative to a non-drug-treated sample after 72 hours was determined using the following mathematical formula 1 and mathematical formula 2.

[10] = test system: colo-201 cells; assay: cell growth-suppressive activity test; type: cell-based; conditions: 2D and 3D culture, 72 hours, CellTiter-Glo
Description: as §5, §6

[11] = test system: colo-205 cells; assay: cell growth-suppressive activity test; type: cell-based; conditions: 2D and 3D culture, 72 hours, CellTiter-Glo
Description: as §5, §6

[12] = test system: SK-MEL-1 cells; assay: cell growth-suppressive activity test; type: cell-based; conditions: 2D and 3D culture, 72 hours, CellTiter-Glo
Description: as §5, §6

[13] = test system: SW48 cells; assay: cell growth-suppressive activity test; type: cell-based; conditions: 2D and 3D culture, 72 hours, CellTiter-Glo
Description: as §5, §6

[14] = test system: MEK; conditions: cited from earlier work

CNC(=O)c1cc(Oc2ccc(NC(=O)Nc3ccc(Cl)c(C(F)(F)F)c3)cc2)ccn1 [sorafenib]
inhibitory effect on the phosphorylation of MEK and ERK [1]: did not provide complete inhibitory effects

O=C(NOCC1CC1)c1ccc(F)c(F)c1Nc1ccc(I)cc1Cl [PD184352]
apoptosis induction / influence on cell cycle (sub-G1 population) ([2]; at the concentration that completely inhibited phosphorylation of ERK (MEK and ERK for SB590885), 48 hours): remarkable G1 arrest was induced but no apoptosis was induced
apoptosis induction ([2]; concentration higher than that completely inhibiting phosphorylation of ERK): Apoptosis was induced
apoptosis induction / influence on cell cycle (sub-G1 population) [3]: remarkable G1 arrest was induced but no apoptosis was induced
apoptosis induction / influence on cell cycle (sub-G1 population) [4]: apoptosis was induced
apoptosis induction / influence on cell cycle (sub-G1 population) [5]: did not exhibit any particular influence
apoptosis induction / influence on cell cycle (sub-G1 population) [6]: apoptosis was induced

O=C(NOC[C@H](O)CO)c1ccc(F)c(F)c1Nc1ccc(I)cc1F [PD0325901]
clinical response, total of a partial response and a complete response [7]: about 10%

N#CC(=C(/N)Sc1ccccc1N)/C(C#N)=C(\N)Sc1ccccc1N [U0126]
tendency of drug sensitivity over the cell line panel compared with SMK-17 [8]: 23 out of the 24 kinds of cell lines exhibited a tendency of drug sensitivity similar to that in the case of SMK-17
sensitivity in growth-suppressive activity test (from GI50) [9]: high sensitivity
sensitivity in growth-suppressive activity test (from GI50) [10]: high sensitivity
sensitivity in growth-suppressive activity test (from GI50) [11]: high sensitivity
sensitivity in growth-suppressive activity test (from GI50) [12]: high sensitivity
sensitivity in growth-suppressive activity test (from GI50) [13]: high sensitivity

Cn1cnc2c(F)c(Nc3ccc(Br)cc3Cl)c(C(=O)NOCCO)cc21 [AZD6244]
IC50 ([14]; non-ATP-competitive manner, read-out: MEK inhibition, IC50 value): ~0.012 µM
